Test results as given in PubChem BioAssay (NCI).
Values joined by “and” are separate entries in the source; they are usually repeats but may differ in a detail not shown here. Identical values can stand only once.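 Cells were grown in 96-well plates and exposed to each compound for 48 hours at five concentrations; endpoints were interpolated linearly between bracketing concentrations, or set to the highest concentration if not reached. GI50 is the concentration that inhibits growth by half. TGI: total growth inhibition.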

Tests used:
Test in all cases: NCI-60 cell line screen, 48 h
SR leukemia = tested on: SR leukemia
UACC-62 melanoma = tested on: UACC-62 melanoma
HS 578T breast = tested on: HS 578T breast
EKVX NSCLC = tested on: EKVX NSCLC
SF-268 CNS = tested on: SF-268 CNS
RXF 393 renal = tested on: RXF 393 renal
BT-549 breast = tested on: BT-549 breast
MALME-3M melanoma = tested on: MALME-3M melanoma
HOP-92 NSCLC = tested on: HOP-92 NSCLC
SF-539 CNS = tested on: SF-539 CNS

SMILES | GI50 (SR leukemia) [µM] | TGI (SR leukemia) | GI50 (UACC-62 melanoma) [µM] | TGI (UACC-62 melanoma) | GI50 (HS 578T breast) | TGI (HS 578T breast) | GI50 (EKVX NSCLC) | TGI (EKVX NSCLC) | GI50 (SF-268 CNS) | TGI (SF-268 CNS) | GI50 (RXF 393 renal) | TGI (RXF 393 renal) | GI50 (BT-549 breast) [µM] | TGI (BT-549 breast) | GI50 (MALME-3M melanoma) [µM] | TGI (MALME-3M melanoma) | GI50 (HOP-92 NSCLC) | TGI (HOP-92 NSCLC) | GI50 (SF-539 CNS) | TGI (SF-539 CNS)
COc1cc2c(/C=N\N=C(N)N)c[nH]c2cc1C | 16.5 | 30.1 µM | 16 | 33 µM | 18.5 µM | 40 µM | 28.3 µM | 88.5 µM | 12.5 µM | 28.7 µM | 62.1 µM | > 100 µM | 15.3 | 28.5 µM | – | – | – | – | – | –
Nc1ccccc1O.O.O=C(O)C1[O][Sb][O]C1C(=O)O (configuration not stated) | 2.42 | 50.6 µM | 15.1 | 30.3 µM | 9.07 µM | 46.2 µM | 18.1 µM | 38.9 µM | 17.5 µM | > 53.4 µM | 6.35 µM | 16.7 µM | 14.9 | 30.6 µM | 1.65 | 4.97 µM | 21 µM | 40.2 µM | 17.9 µM | 37.4 µM
O=C(/C=C/c1ccccc1)c1ccccc1 | – | > 10 µM | – | > 10 µM | – | > 10 µM | – | > 10 µM | – | > 10 µM | – | > 10 µM | – | > 10 µM | – | > 10 µM | – | > 10 µM | – | > 10 µM
O=C1Nc2ccccc2/C1=C1\CCc2cc(O)ccc21 | 4.25 | > 25 µM | 7.73 | > 25 µM | 7.12 µM | > 25 µM | 4.17 µM | > 25 µM | 10.1 µM | > 25 µM | 9.85 µM | > 25 µM | 8.47 | > 24.2 µM | 8.11 | > 25 µM | 5.93 µM | 22.8 µM | 9.64 µM | > 25 µM
O=C(Nc1cc(Nc2ncccc2-c2ncnc3nc[nH]c23)ccc1F)c1cc(C(F)(F)F)cc(C(F)(F)F)c1 | 2.09 | 5.67 µM | 0.38 | 2.32 µM | 1.8 µM | 8.88 µM | 4.1 µM | > 10 µM | 3.17 µM | > 10 µM | 1.91 µM | 4.62 µM | 2.87 | 6.54 µM | 0.152 | 0.542 µM | 0.891 µM | 3.92 µM | 1.3 µM | 3.04 µM
O=C(NCc1ccc(Cn2c(=O)sn(-c3ccccc3)c2=O)cc1)OCc1ccc2cccc(O)c2n1 | 0.383 | > 100 µM | 1.17 | 2.44 µM | 1.71 µM | 4.9 µM | 1.5 µM | 3.05 µM | 1.55 µM | 3.04 µM | 0.457 µM | 1.71 µM | 0.732 | 2.3 µM | 1.48 | 2.86 µM | 0.459 µM | 1.97 µM | 1.05 µM | 2.3 µM
NNCCc1ccc(NC(=O)CCCc2ccc(C(=O)Nc3ccccc3N)cc2)cc1 | 3.24 | > 100 µM | 3.79 | 31.8 µM | 37.8 µM | > 100 µM | 51.1 µM | > 100 µM | 5.97 µM | > 100 µM | 12.6 µM | 53.9 µM | 9.5 | > 100 µM | 2.71 | 50.8 µM | 7.26 µM | > 100 µM | 9.57 µM | > 100 µM
CN(C)C(=S)SSC(=S)N(C)C | – | 74.6 µM and 27.8 µM and 34.8 µM | 15.8 | 32.8 µM and > 41.6 µM and 28.2 µM | 15.2 µM and > 100 µM and 45 µM | 40.9 µM and > 100 µM and > 90.6 µM | 22 µM and > 73.4 µM and 18.6 µM | 96.3 µM and > 100 µM and 35.1 µM | 15 µM and 42.7 µM and 16.1 µM | 29 µM and > 100 µM and 32.8 µM | 16.5 µM and 38.6 µM and 16.6 µM | 31 µM and > 62.6 µM and 32.6 µM | – | 30.6 µM and 31.3 µM and 28.4 µM | 16.3 | 34.7 µM and 50.1 µM and 31 µM | 17.3 µM and 59.5 µM and 18.4 µM | 42.8 µM and > 100 µM and 36.7 µM | 16.3 µM and 40.8 µM and 10.7 µM | 31.9 µM and > 100 µM and > 45.8 µM
N[C@H](CCC(=O)N[C@@H](Cc1c[nH]c2ccccc12)C(=O)O)C(=O)O | > 100 | > 100 µM | > 100 | > 100 µM | > 100 µM | > 100 µM | > 100 µM | > 100 µM | > 100 µM | > 100 µM | > 100 µM | > 100 µM | > 100 | > 100 µM | > 100 | > 100 µM | > 100 µM | > 100 µM | > 100 µM | > 100 µM
CC(C)c1[nH]nc2c1N=C(c1ccccc1Cl)c1cc([N+](=O)[O-])ccc1N2 | 1.51 | 10 µM | 4.18 | > 23.5 µM | 3.16 µM | > 20.7 µM | – | – | 7.92 µM | > 25 µM | 3.64 µM | 8.45 µM | 6.66 | > 22.1 µM | > 16.2 | > 25 µM | 4 µM | 12.6 µM | 7.27 µM | > 22 µM
O=C1CCCN1c1ccccc1I(=O)=O | 95.6 | > 100 µM | > 100 | > 100 µM | > 100 µM | > 100 µM | > 100 µM | > 100 µM | > 100 µM | > 100 µM | > 100 µM | > 100 µM | > 100 | > 100 µM | > 100 | > 100 µM | > 100 µM | > 100 µM | > 100 µM | > 100 µM
CCc1ccc2c(c1)C(=O)c1c-2n(CCCN=[N+]=[N-])c(=O)c2cc([N+](=O)[O-])ccc12 | > 50 | > 50 µM | > 50 | > 50 µM | > 50 µM | > 50 µM | > 50 µM | > 50 µM | > 50 µM | > 50 µM | > 50 µM | > 50 µM | > 50 | > 50 µM | > 50 | > 50 µM | > 50 µM | > 50 µM | > 50 µM | > 50 µM
CC1CC(O)C(=O)C(O[C@@H]2C[C@@H]3CC[C@@H]4[C@H](CC[C@]5(C)C(C6=CC(=O)OC6)CC[C@]45O)[C@@]3(C=O)C[C@H]2O)O1 (some centres not stated) | – | 0.0792 µM | – | 0.178 µM | – | 0.214 µM | – | 0.0542 µM | – | 0.146 µM | – | 0.0506 µM | – | 0.126 µM | – | 0.0708 µM | – | – | – | 0.0586 µM
COC(c1ccc(C(C)(C)C)cc1)(c1ccc(C(C)(C)C)cc1)c1ccc(C(C)(C)C)cc1 | – | > 100 µM | – | > 100 µM | – | > 100 µM | – | > 100 µM | – | > 100 µM | – | – | – | > 100 µM | – | > 100 µM | – | – | – | > 100 µM
